Data reported in US12365665B2, “Solid form of diaminopyrimidine compound or hydrate thereof, preparation method therefor, and application thereof” (BEIJING TIDE PHARMACEUTICAL CO., LTD., priority 2020, dated 2025).

Columns and labels:
Assay type in all cases: physicochemical
[1] = Room temperature stability test (XRPD before and after storage); conditions: sealed in medicinal low-density polyethylene bag, 180 days
Experimental: The detection instruments and conditions used in the following examples are as follows: • (1) X-Ray Powder Diffraction (XRPD) • Instrument Model: Bruker D8 advance, equipped with a LynxEye detector • Test conditions: the anode target material was copper, the light pipe was set to (40 KV 40 mA), the 2θ scan angle for the sample was from 3° to 40°, and scan step was 0.02°. • (2) Differential Scanning Calorimetry Analysis (DSC) • Instrument Model: TA Discovery DSC 250 (TA Instruments, US) • Test conditions: the heating rate was 10° C./min, and dry nitrogen was used as the purge gas. • (3) Thermogravimetric Analysis (TGA) • Instrument Model: Discovery TGA 55 (TA Instruments, US) • Test conditions: automatic weighing in the heating furnace, the heating rate was 10° C./min, and dry nitrogen was used as the purge gas. • (4) Polarizing Microscope Analysis (PLM) • Instrument Model: Polarizing Microscope ECLIPSE LV100POL (Nikon, JPN) […]

[2] = High temperature stability test (XRPD); conditions: 60° C.
Experimental: (§1) The detection instruments and conditions used in the following examples are as follows: • (1) X-Ray Powder Diffraction (XRPD) • Instrument Model: Bruker D8 advance, equipped with a LynxEye detector • Test conditions: the anode target material was copper, the light pipe was set to (40 KV 40 mA), the 2θ scan angle for the sample was from 3° to 40°, and scan step was 0.02°. • (2) Differential Scanning Calorimetry Analysis (DSC) • Instrument Model: TA Discovery DSC 250 (TA Instruments, US) • Test conditions: the heating rate was 10° C./min, and dry nitrogen was used as the purge gas. • (3) Thermogravimetric Analysis (TGA) • Instrument Model: Discovery TGA 55 (TA Instruments, US) • Test conditions: automatic weighing in the heating furnace, the heating rate was 10° C./min, and dry nitrogen was used as the purge gas. • (4) Polarizing Microscope Analysis (PLM) • Instrument Model: Polarizing Microscope ECLIPSE LV100POL (Nikon, JPN)
The stability of the crystalline form I prepared in Example 2 was investigated at 60° C., and the XRPD pattern was measured with a Bruker D8 advance X-ray powder diffractometer (see FIG. 19).

[3] = High humidity stability test (XRPD); conditions: 92.5% RH/25° C., after 5, 10 and 30 days
Experimental: as §1
The stability of the crystalline form I prepared in Example 2 was investigated under a condition of 92.5% RH/25° C., and the XRPD pattern was measured with a Bruker D8 advance X-ray powder diffractometer (see FIG. 20).

[4] = Physical grinding stability test (XRPD); conditions: physically ground for 2 minutes
Experimental: as §1
The crystalline form I prepared in Example 2 was physically ground for 2 minutes, and then the XRPD pattern was measured with a Bruker D8 advance X-ray powder diffractometer (see FIG. 21).

C#Cc1cc(Oc2cnc(N)nc2N)c(C(C)C)cn1 [crystalline form I, 5-((2-ethynyl-5-isopropylpyridin-4-yl)oxy)pyrimidine-2,4-diamine]
change in the crystalline form (XRPD) after storage at room temperature [1]: no change in the crystalline form | change in the crystalline form after storage under a high temperature condition (summary statement) ([2]; 30 days): its crystalline form did not change | change in the crystalline form (XRPD) at high temperature ([2]; after 5, 10 and 30 days): no change in the crystalline form | change in the crystalline form (XRPD) at high humidity [3]: no change in the crystalline form | change in the crystalline form (XRPD) after physical grinding [4]: no change in the crystalline form
